Results from patent publication US9468641B2, “Anti-inflammatory pharmaceutical composition comprising benzopyranyl tetracycles” (SEOUL NATIONAL UNIVERSITY R&DB FOUNDATION, priority 2014, dated 2016).

system: BV-2 cells; assay: Griess assay of LPS-induced nitrite release in BV-2 cells; type: cell-based; details: BV-2 cells, Griess assay; expressed as percentages of the nitrite level produced upon DMSO treatment (100%)
Procedure: Cells increase the secretion of nitrite when induced to be inflammatory, but decrease the secretion of nitrite in the presence of an anti-inflammatory agent. […] Cells were treated with the compounds in the absence or presence of 100 ng/mL LPS (lipopolysaccharide). After 24 hrs of incubation, the cell culture media were reacted with Griess reagent (0.1% naphthylethylenediamine dihydrochloride and 1% sulfanilamide in 2% phosphoric acid). Absorbance was measured at 550 nm using a microplate reader, and the level of nitrite was estimated by comparison with a sodium nitrite standard curve.

| SMILES | NO inhibition (%) |
| --- | --- |
| CC1(C)Oc2cc(O)ccc2C2C1=CCn1c(=O)n(C3CCCCC3)c(=O)n12 (centres unmarked) [Chemical Formula 3] | 38.0% |
| Cn1c(=O)n2n(c1=O)C1C(=CC2)C(C)(C)Oc2cc(O)ccc21 (centres unmarked) [Chemical Formula 4] | 75.0% |
| CC1(C)Oc2cc(O)ccc2C2C1=CCn1c(=O)n(Cc3ccccc3)c(=O)n12 (centres unmarked) [Chemical Formula 5] | 63.0% |
| Cc1ccc(-n2c(=O)n3n(c2=O)C2C(=CC3)C(C)(C)Oc3cc(O)ccc32)cc1 (centres unmarked) [Chemical Formula 6] | 41.8% |
| CC1(C)Oc2cc(O)ccc2C2C1=CCn1c(=O)n(-c3ccc(C(C)(C)C)cc3)c(=O)n12 (centres unmarked) [Chemical Formula 7] | 92.1% |
| COc1ccc(-n2c(=O)n3n(c2=O)C2C(=CC3)C(C)(C)Oc3cc(O)ccc32)cc1 (centres unmarked) [Chemical Formula 8] | 77.7% |
| COc1cccc(-n2c(=O)n3n(c2=O)C2C(=CC3)C(C)(C)Oc3cc(O)ccc32)c1 (centres unmarked) [Chemical Formula 9] | 90.8% |
| CC1(C)Oc2cc(O)ccc2C2C1=CCn1c(=O)n(-c3ccc(F)cc3)c(=O)n12 (centres unmarked) [Chemical Formula 10] | 76.4% |
| CC1(C)Oc2cc(O)ccc2C2C1=CCn1c(=O)n(-c3ccccc3I)c(=O)n12 (centres unmarked) [Chemical Formula 11] | 55.2% |
| CC1(C)Oc2cc(O)ccc2C2C1=CCn1c(=O)n(-c3cccc([N+](=O)[O-])c3)c(=O)n12 (centres unmarked) [Chemical Formula 12] | 70.4% |
| O=c1n(-c2ccccc2)c(=O)n2n1CC=C1C2c2ccc(O)cc2OC12CCCC2 (centres unmarked) [Chemical Formula 13] | 70.4% |
| O=c1n(C2CCCCC2)c(=O)n2n1CC=C1C2c2ccc(O)cc2OC12CCCC2 (centres unmarked) [Chemical Formula 14] | 48.8% |
| Cn1c(=O)n2n(c1=O)C1C(=CC2)C2(CCCC2)Oc2cc(O)ccc21 (centres unmarked) [Chemical Formula 15] | 41.4% |
| O=c1n(Cc2ccccc2)c(=O)n2n1CC=C1C2c2ccc(O)cc2OC12CCCC2 (centres unmarked) [Chemical Formula 16] | 53.2% |
| Cc1ccc(-n2c(=O)n3n(c2=O)C2C(=CC3)C3(CCCC3)Oc3cc(O)ccc32)cc1 (centres unmarked) [Chemical Formula 17] | 72.1% |
| CC(C)(C)c1ccc(-n2c(=O)n3n(c2=O)C2C(=CC3)C3(CCCC3)Oc3cc(O)ccc32)cc1 (centres unmarked) [Chemical Formula 18] | 99.7% |
| COc1ccc(-n2c(=O)n3n(c2=O)C2C(=CC3)C3(CCCC3)Oc3cc(O)ccc32)cc1 (centres unmarked) [Chemical Formula 19] | 58.3% |
| COc1cccc(-n2c(=O)n3n(c2=O)C2C(=CC3)C3(CCCC3)Oc3cc(O)ccc32)c1 (centres unmarked) [Chemical Formula 20] | 63.0% |
| O=c1n(-c2ccc(F)cc2)c(=O)n2n1CC=C1C2c2ccc(O)cc2OC12CCCC2 (centres unmarked) [Chemical Formula 21] | 58.7% |

| SMILES | NO inhibition (%) |
| --- | --- |
| O=c1n(-c2ccccc2I)c(=O)n2n1CC=C1C2c2ccc(O)cc2OC12CCCC2 (centres unmarked) [Chemical Formula 22] | 67.1% |
| O=c1n(-c2cccc([N+](=O)[O-])c2)c(=O)n2n1CC=C1C2c2ccc(O)cc2OC12CCCC2 (centres unmarked) [Chemical Formula 23] | 81.5% |
| CC1(C)Oc2cc(O)ccc2C2C1=CCn1c(=O)n(-c3ccc(Cl)cc3)c(=O)n12 (centres unmarked) [Chemical Formula 24] | 22.3% |
| O=c1n(-c2ccc(Cl)cc2)c(=O)n2n1CC=C1C2c2ccc(O)cc2OC12CCCC2 (centres unmarked) [Chemical Formula 25] | 44.0% |
| CC1(C)Oc2cc(O)ccc2C2C1=CCn1c(=O)n(-c3ccccc3Cl)c(=O)n12 (centres unmarked) [Chemical Formula 26] | 57.1% |
| O=c1n(-c2ccccc2Cl)c(=O)n2n1CC=C1C2c2ccc(O)cc2OC12CCCC2 (centres unmarked) [Chemical Formula 27] | 44.8% |
| CC1(C)Oc2cc(O)ccc2C2C1=CCn1c(=O)n(-c3ccc(Br)cc3)c(=O)n12 (centres unmarked) [Chemical Formula 28] | 58.4% |
| O=c1n(-c2ccc(Br)cc2)c(=O)n2n1CC=C1C2c2ccc(O)cc2OC12CCCC2 (centres unmarked) [Chemical Formula 29] | 44.0% |
| Cn1c(=O)n2ccc3c(n2c1=O)-c1ccc(O)cc1OC3(C)C [Chemical Formula 31] | 12.1% |
| CC1(C)Oc2cc(O)ccc2C2C1C=Cn1c(=O)n(-c3ccccc3)c(=O)n12 (centres unmarked) [Chemical Formula 32] | 24.9% |
| O=c1n(-c2ccccc2)c(=O)n2n1CCC1C2c2ccc(O)cc2OC12CCCC2 (centres unmarked) [Chemical Formula 33] | 41.8% |
| COc1cccc(-n2c(=O)n3n(c2=O)C2c4ccc(O)cc4OC(C)(C)C2C=C3)c1 (centres unmarked) [Chemical Formula 34] | 4.9% |
| CC1(C)Oc2ccccc2C2C1=CCn1c(=O)n(-c3ccccc3)c(=O)n12 (centres unmarked) [Chemical Formula 35] | 1.2% |
| COc1ccc2c(c1)OC(C)(C)C1=CCn3c(=O)n(-c4ccccc4)c(=O)n3C12 (centres unmarked) [Chemical Formula 36] | 3.2% |
| CCOC(=O)CCC1(C)Oc2cc(O)ccc2C2C1=CCn1c(=O)n(-c3ccccc3)c(=O)n12 (centres unmarked) [Chemical Formula 39] | 44.9% |
| CC1(C)Oc2cc(O)ccc2C2C1=CCn1c(=O)n(-c3ccc(C(F)(F)F)cc3)c(=O)n12 (centres unmarked) [Chemical Formula 47] | 36.0% |
| CC1(C)Oc2cc(O)ccc2C2C1=CCn1c(=O)n(-c3ccc(C(=O)c4ccccc4)cc3)c(=O)n12 (centres unmarked) [Chemical Formula 48] | 65.5% |
| COC(=O)CCC1(C)Oc2cc(O)ccc2C2C1=CCn1c(=O)n(-c3ccc(C)cc3)c(=O)n12 (centres unmarked) [Chemical Formula 49] | 63.2% |
| CCNC(=O)CCC1(C)Oc2cc(O)ccc2C2C1=CCn1c(=O)n(-c3ccc(C)cc3)c(=O)n12 (centres unmarked) [Chemical Formula 51] | 6.2% |
